# From ChEMBL document CHEMBL1131821, “SAR in the alkoxy lactone series: the discovery of DFP, a potent and orally active COX-2 inhibitor” (Bioorg Med Chem Lett, 1999)
# Key:
# [1] = molecular target: T1, Prostaglandin G/H synthase 1 (Homo sapiens, UniProt P23219); format: tissue-based, Blood
# Description: Inhibitory activity against Prostaglandin G/H synthase 1 in human whole blood
# [2] = Maximal concentration (Cmax) in rhesus monkey plasma at a dose of 5 mg/kg; format: ADME, organism-based; design: dose 5 mg/kg; conditions: cercopithecidae
# Rattus norvegicus [3] = assay: In vivo effective concentration of compound in rat pyresis; format: functional
# Rattus norvegicus [4] = assay: In vivo effective concentration of compound in rat paw edema; format: functional
# [5] = Maximal concentration (Cmax) in dog plasma at a dose of […] mg/kg; format: ADME, organism-based, Canis lupus familiaris; conditions: 5 mg/kg
# Rattus norvegicus [6] = assay: In vivo effective concentration of compound in rat hyperalgesia; format: functional
# [7] = molecular target: T1, Prostaglandin G/H synthase 1; assay: Inhibitory activity against Human Prostaglandin G/H synthase 1 in U937 Microsome COX-1 assay at a concentration of 30 uM
# [8] = Half life by ''Cr'' assay in dog at a dose of 5 mg/kg; format: ADME, organism-based, Canis lupus familiaris; design: dose 5 mg/kg; conditions: in vivo
# [9] = Half life by ''Cr'' assay in rhesus monkey at a dose of 5 mg/kg; format: ADME, organism-based; design: dose 5 mg/kg; conditions: cercopithecidae, in vivo
# Rattus norvegicus [10] = assay: In vivo effective concentration of compound in rat adjuvant arthritis; format: functional
# [11] = Maximal concentration (Cmax) in squirrel monkey plasma at a dose of 5 mg/kg; format: ADME, organism-based; design: dose 5 mg/kg
# [12] = Half life the of compound was determined by ''Cr'' assay in rat at a dose of 10 mg/kg; format: ADME, organism-based; design: dose 10 mg/kg; conditions: in vivo
# [13] = Maximal concentration (Cmax) in the rat plasma at a dose of 10 mg/kg; format: ADME, organism-based; design: dose 10 mg/kg
# [14] = Half life the of compound was determined by ''Cr'' assay in squirrel monkey at a dose of 5 mg/kg; format: ADME, organism-based; design: dose 5 mg/kg; conditions: in vivo
# [15] = molecular target: T1, Prostaglandin G/H synthase 1; assay: Inhibitory activity against Human Cyclooxygenase-1 ( COX-1 ) in U937 Microsome COX-1 assay
# [16] = molecular target: T1, Prostaglandin G/H synthase 1; assay: Inhibitory activity against Human Prostaglandin G/H synthase 1 in U937 Microsome COX-1 assay
# [17] = molecular target: T1, Prostaglandin G/H synthase 1; assay: In vitro inhibitory activity against Prostaglandin G/H synthase 1 in human whole blood assay
# T1 sequence (P23219 whole entry): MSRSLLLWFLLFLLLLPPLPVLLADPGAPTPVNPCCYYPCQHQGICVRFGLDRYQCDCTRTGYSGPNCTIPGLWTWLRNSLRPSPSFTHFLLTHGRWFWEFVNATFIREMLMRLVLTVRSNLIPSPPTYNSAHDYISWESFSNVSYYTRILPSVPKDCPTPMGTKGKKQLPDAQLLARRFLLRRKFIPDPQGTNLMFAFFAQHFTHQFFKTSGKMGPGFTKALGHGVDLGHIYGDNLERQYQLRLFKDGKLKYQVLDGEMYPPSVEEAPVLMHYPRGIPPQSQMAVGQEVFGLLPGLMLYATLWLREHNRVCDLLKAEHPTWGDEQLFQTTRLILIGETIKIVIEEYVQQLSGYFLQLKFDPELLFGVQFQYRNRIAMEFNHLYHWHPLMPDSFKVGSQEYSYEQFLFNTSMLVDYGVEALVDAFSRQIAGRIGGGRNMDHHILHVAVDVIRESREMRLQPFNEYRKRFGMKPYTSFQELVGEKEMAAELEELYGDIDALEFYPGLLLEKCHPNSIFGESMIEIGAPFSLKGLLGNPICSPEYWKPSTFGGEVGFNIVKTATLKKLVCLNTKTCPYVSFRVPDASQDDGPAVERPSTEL
compound,measurement,setting,value
CCC(CC)OC1=C(c2ccc(S(C)(=O)=O)cc2)C(C)(C)OC1=O,IC50,[1],39 µM
CC(C)OC1=C(c2ccc(S(C)(=O)=O)cc2)C(C)(C)OC1=O,Cmax,[2],3 µM
same,ED50,Rattus norvegicus [3],0.3 mg/kg
same,ED50,Rattus norvegicus [4],0.8 mg/kg
same,Cmax,[5],12 µM
same,ED50,Rattus norvegicus [6],0.8 mg/kg
same,inhibition,[7],32%
same,half-life,[8],4.8 h
same,IC50,[1],> 100 µM
same,half-life,[9],2 h
same,ED50,Rattus norvegicus [10],0.15 mg/kg
same,Cmax,[11],5.5 µM
same,half-life,[12],7.1 h
same,Cmax,[13],15 µM
same,half-life,[14],1.4 h
CC(OC1=C(c2ccc(S(C)(=O)=O)cc2)C(C)(C)OC1=O)C1CC1 (configuration not stated),IC50,[1],36 µM
same,IC50,[15],6.5 µM
CCC(C)OC1=C(c2ccc(S(C)(=O)=O)cc2)C(C)(C)OC1=O (configuration not stated),IC50,[1],10 µM
CC1(C)OC(=O)C(OCC2CC2)=C1c1ccc(S(C)(=O)=O)cc1 [FIROCOXIB],IC50,[1],> 100 µM
same,IC50,[16],25 µM
CC1(C)OC(=O)C(OC2CCCCC2)=C1c1ccc(S(C)(=O)=O)cc1,IC50,[17],> 58 µM
CC1(C)OC(=O)C(OC2CCC2)=C1c1ccc(S(C)(=O)=O)cc1,IC50,[1],30 µM
COc1ccc2c(c1)c(CC(=O)O)c(C)n2C(=O)c1ccc(Cl)cc1 [INDOMETHACIN],ED50,Rattus norvegicus [3],1.1 mg/kg
same,ED50,Rattus norvegicus [4],2 mg/kg
same,ED50,Rattus norvegicus [6],1.5 mg/kg
same,ED50,Rattus norvegicus [10],0.2 mg/kg
CC1(C)OC(=O)C(OC2CCCC2)=C1c1ccc(S(C)(=O)=O)cc1,IC50,[1],> 100 µM
